Data reported in ChEMBL document CHEMBL3822386, “New sesquiterpene lactones, vernonilides A and B, from the seeds of Vernonia anthelmintica in Uyghur and their antiproliferative activities” (Bioorg Med Chem Lett, 2016).

Assays:
Format in all cases: functional, cell-based
[1] = system: A549; experiment: Antiproliferative activity against human A549 cells assessed as reduction in cell viability after 72 hrs by WST-8 assay; settings: A549, 72 h
[2] = system: HeLa; experiment: Antiproliferation activity against human HeLa cells assessed as reduction in cell viability after 72 hrs by WST-8 assay
[3] = system: MDA-MB-231; experiment: Antiproliferation activity against human MDA-MB-231 cells assessed as reduction in cell viability after 72 hrs by WST-8 assay; settings: MDA-MB-231, 72 h

Row | Structure (SMILES) | IC50 [1] [nM] | IC50 [2] [nM] | IC50 [3] [nM]
1 | C=C[C@]1(C)C[C@H](OC(=O)C(=C)COC(C)=O)[C@H]2C(=C)C(=O)O[C@@H]2[C@H]1C(=C)C=O | 2950 | 4160 | 3200
2 | C=C[C@@]12COC(=O)C(=C)[C@@H]1[C@H]1OC(=O)C(=C)[C@@H]1[C@@H](OC(=O)C(=C)COC(C)=O)C2 | 1520 | 2160 | 1350
3 | C=C[C@@]12COC(=O)C(=C)[C@@H]1[C@H]1OC(=O)C(=C)[C@@H]1[C@@H](OC(=O)C(=C)COCC)C2 | 21600 | 16300 | 9500
4 | C=C[C@@]12COC(=O)C(=C)[C@@H]1[C@H]1OC(=O)C(=C)[C@@H]1[C@@H](O)C2 [VERNOLEPIN] | 16900 | 2200 | 1900

Now those with a lower IC50 [1], led by results:

Row | IC50 [1] [nM] | IC50 [2] [nM] | IC50 [3] [nM] | Structure (SMILES)
5 | 700 | 400 | 350 | C=C[C@]1(C)C[C@H](OC(=O)C(=C)CO)[C@H]2C(=C)C(=O)O[C@@H]2[C@H]1C(=C)C=O
6 | 1000 | 100 | 250 | C=C(CO)C(=O)O[C@H]1CC(=C)[C@@H]2CC[C@@H](CO)[C@@H]2[C@H]2OC(=O)C(=C)[C@@H]21
7 | 400 | 200 | 300 | C=C[C@@]12COC(=O)C(=C)[C@@H]1[C@H]1OC(=O)C(=C)[C@@H]1[C@@H](OC(=O)C(=C)CO)C2 [VERNODALIN]
